Measured values as given in patent US20180153995A1, “USE OF ANTIMICROBIAL POLYMERS FOR RE-SENSITIZATION OF MICROORGANISMS UPON EMERGENCE OF RESISTANCE TO ANTI-MICROBIAL AGENTS” (Technion Research & Development Foundation Limited, priority 2008, published 2018).
Several values for one entry are separate records, joined by “and”; a condition that tells them apart may be missing. Equal entries are not always repeated. Where two headings read alike, the source gives them in different places.

Assays:
[1] = tested on: MRSA 15903; experiment: microbe, parasite or virus in culture; type: cell-based, Staphylococcus aureus
Summary of the method: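 Two-agent combinations tested against MRSA 15903; FIC index = A/MICA + B/MICB, using MICs in combination versus alone. Below 0.5 read as clear re-sensitizing, 0.5–4 marginal or null, above 4 antagonism.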

[2] = tested on: S. aureus 15819; experiment: Antibiotic MIC by microdilution with or without sub-MIC polymer; type: cell-based, Staphylococcus aureus; settings: S. aureus 15819
[3] = tested on: S. aureus 15877; experiment: as above; type: cell-based, Staphylococcus aureus
[4] = tested on: E. coli 14384; experiment: as above; type: cell-based, Escherichia coli
Summary of the method: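 Inoculum 10^5 bacteria/ml; 2-fold serial antibiotic dilutions ± […]; 24 h, 37° C; growth by OD 620 nm vs standards.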

[5] = tested on: E. coli 16327; experiment: microbe, parasite or virus in culture
[6] = +½ MIC (3.12 μM) C12(5-ene)KKNC12KNH2
[7] = +⅓ MIC (2.1 μM) C12(5-ene)KKNC12KNH2

## Cc1onc(-c2ccccc2)c1C(=O)N[C@@H]1C(=O)N2[C@@H]1SC(C)(C)[C@@H]2C(=O)O [Oxacillin, oxacillin]
[1]; MRSA 15903, +¼ polymer MIC (1.6 μM) NC12(KNC12K)2NH2
  MIC: 256 µg/mL
[1]; MRSA 15903, +½ polymer MIC (3.1 μM) NC12(KNC12K)2NH2
  MIC: 0.17 µg/mL
[1]; MRSA 15903, +⅓ polymer MIC (2.1 μM) NC12(KNC12K)2NH2
  MIC: 0.34 µg/mL
[1]; MRSA 15903, antibiotic alone
  MIC: 256 µg/mL
[1]; MRSA 15903, oxacillin alone
  concentration up to which oxacillin alone is inactive: > 25 µM
[1]; MRSA 15903, with C12K(KNC10K)3NH2 (SEQ ID NO: 10) at ½ of its MIC
  MIC, ½ + MIC OAK: 0.5 µg/mL
[1]; MRSA 15903, with C12K(KNC10K)3NH2 (SEQ ID NO: 10) at ⅓ of its MIC
  MIC, ⅓ + MIC OAK: 16 to 64 µg/mL
[1]; S. aureus CI-15903, +polymer (¼ MIC) C12(5-ene)KKNC12KNH2
  MIC: 64 µg/mL
[1]; S. aureus CI-15903, +polymer (½ MIC) C12(5-ene)KKNC12KNH2
  MIC: 0.25 µg/mL
[1]; S. aureus CI-15903, +polymer (⅓ MIC) C12(5-ene)KKNC12KNH2
  MIC: 4 µg/mL
[1]; S. aureus CI-15903, alone
  MIC: 256 µg/mL
[1]; Staphylococcus aureus, MRSA, 24 h
  MIC: 256 µg/mL
[1]; Staphylococcus aureus, MRSA, read-out: MIC of oxacillin
  MIC: 256 µg/mL
[1]; Staphylococcus aureus, MRSA, read-out: MIC of oxacillin, MRSA 15903, + ½ MIC NC12(KNC12K)2NH2
  MIC: 0.4 µM
[1]; Staphylococcus aureus, MRSA, read-out: MIC of oxacillin, MRSA 15903, + ½ MIC NC12(KNC12K)2NH2 (text)
  MIC: 0.17 µg/mL
[1]; Staphylococcus aureus, MRSA, read-out: MIC of oxacillin, MRSA 15903, + ⅓ MIC NC12(KNC12K)2NH2
  MIC: 0.8 µM
[1]; Staphylococcus aureus, MRSA, read-out: MIC of oxacillin, MRSA 15903, + ⅓ MIC NC12(KNC12K)2NH2 (text)
  MIC: 0.34 µg/mL
[1]; Staphylococcus aureus, MRSA, read-out: MIC of oxacillin, MRSA 15903, oxacillin alone
  MIC: 576 µM
[2]; +¼ MIC (1.6 μM) C12(5-ene)KKNC12KNH2
  Antibiotic MIC: 2 µg/mL
[2]; +¼ MIC (1.6 μM) C12K(KNC12K)3NH2
  Antibiotic MIC: 4 µg/mL
[2]; +¼ MIC (1.6 μM) C12KKNC12KNH2
  Antibiotic MIC: 8 µg/mL
[2]; [6]
  Antibiotic MIC: 1 µg/mL
[2]; +½ MIC (3.12 μM) C12K(KNC12K)3NH2
  Antibiotic MIC: 0.5 to 1 µg/mL
[2]; +½ MIC (3.12 μM) C12KKNC12KNH2
  Antibiotic MIC: 2 µg/mL
[2]; [7]
  Antibiotic MIC: 2 µg/mL
[2]; +⅓ MIC (2.1 μM) C12K(KNC12K)3NH2
  Antibiotic MIC: 2 µg/mL
[2]; +⅓ MIC (2.1 μM) C12KKNC12KNH2
  Antibiotic MIC: 8 µg/mL
[2]; no polymer (None), Table 8
  Antibiotic MIC: 4 µg/mL
[2]; no polymer (None), Table 11
  Antibiotic MIC: 8 µg/mL
[2]; no polymer (None), Table 13
  Antibiotic MIC: 8 µg/mL
[3]; [6]
  Antibiotic MIC: 16 µg/mL
[3]; [7]
  Antibiotic MIC: 32 µg/mL
[4]
  Antibiotic MIC: 256 µg/mL and >512 µg/mL
[4]; E. coli 14384, +½ MIC C12K(NC8K)5NH2
  Antibiotic MIC: 256 to 512 µg/mL
[4]; E. coli 14384, antibiotic alone (Table 15)
  Antibiotic MIC, None: >512 µg/mL
[4]; E. coli 14384, no polymer (None), Table 9
  Antibiotic MIC: >512 µg/mL
[4]; E. coli 14384, no polymer (None), Table 14
  Antibiotic MIC: >512 µg/mL
[4]; E. coli 14384, polymer at ¼ of its MIC
  Antibiotic MIC in presence of C12K(NC8K)7NH2 (SEQ ID NO: 4), +¼ MIC: >512 µg/mL
[4]; E. coli 14384, polymer at ½ of its MIC
  Antibiotic MIC in presence of C12K(NC8K)7NH2 (SEQ ID NO: 4), +½ MIC: >512 µg/mL
[4]; E. coli 14384, polymer at ⅓ of its MIC
  Antibiotic MIC in presence of C12K(NC8K)7NH2 (SEQ ID NO: 4), +⅓ MIC: >512 µg/mL
[5]
  Antibiotic MIC: 512 µg/mL and >512 µg/mL
[5]; E. coli 16327, +¼ MIC (1.6 μM) C12K(KNC12K)2NH2
  Antibiotic MIC: >512 µg/mL
[5]; E. coli 16327, +½ MIC (3.12 μM) C12K(KNC12K)2NH2
  Antibiotic MIC: 512 µg/mL
[5]; E. coli 16327, +⅓ MIC (2.1 μM) C12K(KNC12K)2NH2
  Antibiotic MIC: >512 µg/mL
